# Results: US20240208965A1, “HETEROARYL ALKYLENE SUBSTITUTED 2-OXOQUINAZOLINE DERIVATIVES AS METHIONINE ADENOSYLTRANSFERASE 2A INHIBITORS” (IDEAYA BIOSCIENCES, INC., priority 2020, published 2024)
# Biological target: T1, Human MAT2A (Homo sapiens, UniProt P31153)
# T1 construct: Human MAT2A: Cepter, amino acids 1-395 Clone ID 334, lot 00023-148; purchased Cepter clone ID 334, lot 00023-148
# Test: Phosphate Sensor Fluorescence Assay (Biologic Example A)
# Format: biochemical
# Settings: MAT2A inhibition, Biological Example A procedure (Compounds 1.001-1.028); 500 uM L-methionine, 500 uM ATP
# Procedure: (§1) The ability of the compound of present disclosure to inhibit MAT2A enzyme was determined using a Phosphate Sensor Fluorescence Assay described below.
# Biologic Example A. Phosphate Sensor Fluorescence Assay
# (§2) MAT2A enzyme is incubated with a test compound in DMSO or DMSO and its substrates (L-methionine and ATP) in a microtiter plate. The enzymatic reaction is stopped by the addition of Working Phosphate Sensor Mixture. The plate is analyzed for fluorescence at 450 nm. The high control (DMSO with enzyme and its substrates) gives high fluorescence which represents no inhibition of enzymatic activity while the low control (DMSO with MAT2A substrates and no enzyme) gives low fluorescence which represents full inhibition of enzymatic activity.
# (§3) • Human MAT2A: Cepter, amino acids 1-395 • Tris, pH 7.5: Invitrogen cat #15567-027 • KCl: Ambion cat #AM9640G • MgCl2: Ambion cat #AM9530G • Brij-35: Sigma cat B4184-10ML • DTT: Goldbio cat #DTT100 • BGG: Sigma cat #G5009-25G • PNP: Novus Biologicals cat #NBP1-50872 • 7-MEG: Cayman Chemical cat #15988 • L-Methionine: Alfa Aesar cat #J61904 • ATP: Alfa Aesar cat #J60336 • Phosphate Sensor: Thermo Fisher cat #PV4407 • EDTA: Life Tech cat #15575-038 • Assay plate: 384-well black polypropylene plate: Thomas Scientific cat #1149Q35
# • Assay Buffer: 50 mM Tris, pH 7.5/50 mM KCl/10 mM MgCl2/0.01% Brij-35/1 mM DTT/0.1% BGG/40 nM PNP/6 uM 7-MEG • MAT2A: 10 nM for Cepter clone ID 329, lot 00023-123 before the addition of Working Phosphate Sensor Mixture • 5 nM for Cepter clone ID 334, lot 00023-148 before the addition of Working Phosphate Sensor Mixture • L-methionine: 500 uM before the addition of Working Phosphate Sensor Mixture • ATP: 500 uM before the addition of Working Phosphate Sensor Mixture
# (§4) For the assay, a mixture of 1 mM L-methionine/1 mM ATP (2× final pre-stopped concentration) in assay buffer; MAT2A (2× final pre-stopped concentration) in Assay Buffer and Working Phosphate Sensor Mixture (1.5 uM Phosphate Sensor/30 mM EDTA in Assay Buffer, which is 3× final concentrations) were prepared. Test compounds or DMSO were added to the appropriate well suing D300e digital dispenser. 5 μl/well of Assay Buffer was added to the wells corresponding to the negative control and 5 μl/well of MAT2A was added to all the wells except for those corresponding to the negative control. After incubating the plate at room temperature for 15 minutes, 5 μl/well of the 1 mM L-methionine/1 mM ATP mixture was added to all wells. The plate was centrifuged at 1000 rpm for 1 minute and then incubated at room temperature for 1 hour. 5 μl of the Working Phosphate Sensor Mixture was added to all wells and the plate was centrifuged at 1000 rpm for 1 minute. The plate was read for fluorescence at 450 nm after exciting at 430 nm.
# (§5) Percent inhibition was calculated in Chemical and Biological Information System (CBIS), (ChemInnovation Software Inc.). Curves were fitted by CBIS as % inhibition vs. log [compound concentration] using a 4-parameter inhibition model.
# (§6) Fit=(A+((B−A)/(1+((C/x)^D))))
# (§7) Compounds 1.001-1.028 were tested using the procedure described in Bioogical Example A, described above. Compounds 1.029-1.070 were tested using the procedure described in Biological Example B, described above.
# T1 sequence (P31153 whole entry, the tested form may be a part): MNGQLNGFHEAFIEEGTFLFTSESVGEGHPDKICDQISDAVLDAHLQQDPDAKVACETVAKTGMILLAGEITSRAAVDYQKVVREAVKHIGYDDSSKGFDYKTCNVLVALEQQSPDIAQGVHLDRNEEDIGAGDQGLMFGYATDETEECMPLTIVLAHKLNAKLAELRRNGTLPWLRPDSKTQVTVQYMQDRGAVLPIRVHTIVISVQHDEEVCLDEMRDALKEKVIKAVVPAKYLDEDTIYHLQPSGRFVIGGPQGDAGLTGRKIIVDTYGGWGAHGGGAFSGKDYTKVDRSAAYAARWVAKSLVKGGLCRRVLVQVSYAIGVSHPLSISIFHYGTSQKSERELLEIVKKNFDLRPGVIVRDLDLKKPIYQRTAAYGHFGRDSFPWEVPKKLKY
row,SMILES,IC50 [nM]
1,"CC(c1c[nH]cn1)n1c(=O)nc(N2CC[C@H](O)C2)c2ccc(C(F)(F)F)cc21 (mixture of isomers) [1.019, 1-(1-(1H-imidazol-4-yl)ethyl)-4-((S)-3-hydroxypyrrolidin-1-yl)-7-(trifluoromethyl)quinazolin-2(1H)-one]",200 to 500
2,"CC(c1c[nH]cn1)n1c(=O)nc(N2CC[C@@H](CO)C2)c2ccc(C(F)(F)F)cc21 (mixture of isomers) [1.020, 1-(1-(1H-imidazol-4-yl)ethyl)-4-((R)-3-(hydroxymethyl)pyrrolidin-1-yl)-7-(trifluoromethyl)quinazolin-2(1H)-one]",200 to 500
3,"CO[C@H]1CCN(c2nc(=O)n([C@H](C)c3c[nH]cn3)c3cc(C(F)(F)F)ccc23)C1 (single isomer, unassigned) [1.021]",200 to 500
4,"CO[C@H]1CCN(c2nc(=O)n([C@@H](C)c3c[nH]cn3)c3cc(C(F)(F)F)ccc23)C1 (single isomer, unassigned) [1.022]",1000 to 10000
5,"C[C@@H](c1c[nH]cn1)n1c(=O)nc(N2CCCC2)c2ccc(C(F)(F)F)cc21 (single isomer, unassigned) [1.024]",10 to 200
6,"CO[C@@H]1CCN(c2nc(=O)n([C@H](C)c3c[nH]cn3)c3cc(C(F)(F)F)ccc23)C1 (single isomer, unassigned) [1.025]",10 to 200
7,"CO[C@@H]1CCN(c2nc(=O)n([C@@H](C)c3c[nH]cn3)c3cc(C(F)(F)F)ccc23)C1 (single isomer, unassigned) [1.026]",200 to 500
8,"C[C@H](c1c[nH]cn1)n1c(=O)nc(N2CCC2)c2ccc(C(F)(F)F)cc21 (single isomer, unassigned) [1.027]",200 to 500
9,"C[C@@H](c1c[nH]cn1)n1c(=O)nc(N2CCC2)c2ccc(C(F)(F)F)cc21 (single isomer, unassigned) [1.028]",10 to 200
10,"CNc1nc(=O)n(Cc2c[nH]cn2)c2cc(Cl)ccc12 [1.001, 1-((1H-imidazol-4-yl)methyl)-7-chloro-4-(methylamino)quinazolin-2(1H)-one]",10 to 200
11,"CNc1nc(=O)n([C@H](C)c2cscn2)c2cc(C(F)(F)F)ccc12 [1.002, (R)-4-(methylamino)-1-(1-(thiazol-4-yl)ethyl)-7-(trifluoromethyl)quinazolin-2(1H)-one]",500 to 1000
12,"CNc1nc(=O)n(Cc2c[nH]cn2)c2cc(C(F)(F)F)ccc12 [1.003, 1-((1H-imidazol-4-yl)methyl)-4-(methylamino)-7-(trifluoromethyl)quinazolin-2(1H)-one]",10 to 200
13,"CNc1nc(=O)n(Cc2c[nH]cn2)c2cc(C3CC3)ccc12 [1.004, 1-((1H-Imidazol-4-yl)methyl)-7-cyclopropyl-4-(methylamino)quinazolin-2(1H)-one]",10 to 200
14,"CNc1nc(=O)n(Cc2c[nH]nn2)c2cc(C(F)(F)F)ccc12 [1.005, 1-((1H-1,2,3-triazol-4-yl)methyl)-4-(methylamino)-7-(trifluoromethyl)quinazolin-2(1H)-one]",1000 to 10000
15,"CNc1nc(=O)n(Cc2c[nH]nn2)c2cc(C3CC3)ccc12 [1.006, 1-((1H-1,2,3-triazol-4-yl)methyl)-7-cyclopropyl-4-(methylamino)quinazolin-2(1H)-one]",1000 to 10000

# Now from value to compound:
row,IC50 [nM],SMILES
1,10 to 200,"CC(c1c[nH]cn1)n1c(=O)nc(N2CC[C@@H](O)C2)c2ccc(C(F)(F)F)cc21 (mixture of isomers) [1.012, 1-(1-(1H-imidazol-4-yl)ethyl)-4-((R)-3-hydroxypyrrolidin-1-yl)-7-(trifluoromethyl)quinazolin-2(1H)-one]"
2,10 to 200,"CNc1nc(=O)n(C(C)c2c[nH]cn2)c2cc(C(F)(F)F)ccc12 (racemic) [1.007, 1-(1-(1H-imidazol-4-yl)ethyl)-4-(methylamino)-7-(trifluoromethyl)quinazolin-2(1H)-one]"
3,10 to 200,"CNc1nc(=O)n([C@H](C)c2c[nH]cn2)c2cc(C(F)(F)F)ccc12 (single isomer, unassigned) [1.008]"
4,10 to 200,"CNc1nc(=O)n([C@@H](C)c2c[nH]cn2)c2cc(C(F)(F)F)ccc12 (single isomer, unassigned) [1.009]"
5,10 to 200,"C[C@H](c1c[nH]cn1)n1c(=O)nc(N2CC[C@@H](O)C2)c2ccc(C(F)(F)F)cc21 (single isomer, unassigned) [1.013]"
6,10 to 200,"C[C@@H](c1c[nH]cn1)n1c(=O)nc(N2CC[C@@H](O)C2)c2ccc(C(F)(F)F)cc21 (single isomer, unassigned) [1.014]"
7,10 to 200,"C[C@H](c1c[nH]cn1)n1c(=O)nc(N(C)C)c2ccc(C(F)(F)F)cc21 (single isomer, unassigned) [1.016]"
8,10 to 200,"C[C@@H](c1c[nH]cn1)n1c(=O)nc(N(C)C)c2ccc(C(F)(F)F)cc21 (single isomer, unassigned) [1.017]"
9,10 to 200,"C[C@H](c1c[nH]cn1)n1c(=O)nc(N2CCCC2)c2ccc(C(F)(F)F)cc21 (single isomer, unassigned) [1.023]"

# Biological target: T1, Human MAT2A
# Test: Phosphate Sensor Fluorescence Assay (Biologic Example B)
# Format: biochemical
# Settings: MAT2A inhibition, Biological Example B procedure (Compounds 1.029-1.070); 5.8 nM MAT2A, 500 uM L-methionine, 500 uM ATP
# Procedure: as §1
# Biologic Example B. Phosphate Sensor Fluorescence Assay
# as §2
# as §3, with “1-395 Clone ID 334, lot 00023-148” for “1-395”, “JTBaker P/N 2085-05” for “Alfa Aesar cat #J61904”, “Promega P/N V915B” for “Alfa Aesar cat #J60336”, “Invitrogen” for “Thermo Fisher”, “Corning P/N 3573” for “Thomas Scientific cat #1149Q35”
# • Assay Buffer: 50 mM Tris, pH 7.5/50 mM KCl/10 mM MgCl2/0.01% Brij-35/1 mM DTT/0.01% BGG/40 nM PNP/6 uM 7-MEG • MAT2A: 5.8 nM MAT2A (1-395), Cepter, clone ID 334, lot 00023-148 before the addition of Working Phosphate Sensor Mixture • L-methionine: 500 uM before the addition of Working Phosphate Sensor Mixture • ATP: 500 uM before the addition of Working Phosphate Sensor Mixture
# as §4, with “using a Beckman Coulter Echo 550 acoustic liquid handler. 10 μL/well” for “suing D300e digital dispenser. 5 μl/well”, “10 μL/well” for “5 μl/well”, “10 μL” for “5 μl”, “nm on a Tecan Spark microplate reader.” for “nm.”
# as §5, §6, §7
row,IC50 [nM],SMILES
1,500 to 1000,"CNc1nc(=O)n(Cc2cnco2)c2cc(C(F)(F)F)ccc12 [1.065, 4-(Methylamino)-1-(oxazol-5-ylmethyl)-7-(trifluoromethyl)quinazolin-2(1H)-one]"
2,10 to 200,"CNc1nc(=O)n(Cc2cocn2)c2cc(C(F)(F)F)ccc12 [1.066, 4-(Methylamino)-1-(oxazol-4-ylmethyl)-7-(trifluoromethyl)quinazolin-2(1H)-one]"
3,1000 to 10000,"CNc1nc(=O)n(Cc2cscn2)c2cc(C(F)(F)F)ccc12 [1.067, 4-(Methylamino)-1-(thiazol-4-ylmethyl)-7-(trifluoromethyl)quinazolin-2(1H)-one]"
4,500 to 1000,"CNc1nc(=O)n(Cc2cncs2)c2cc(C(F)(F)F)ccc12 [1.068, 4-(Methylamino)-1-(thiazol-5-ylmethyl)-7-(trifluoromethyl)quinazolin-2(1H)-one]"
